{"source": "patent US8580794B2", "about": "(AbbVie Inc., priority 2009, dated 2013)"}
{"target": "GST-Bc1-2 (Homo sapiens, UniProt P10415)", "sequence (P10415 whole entry)": "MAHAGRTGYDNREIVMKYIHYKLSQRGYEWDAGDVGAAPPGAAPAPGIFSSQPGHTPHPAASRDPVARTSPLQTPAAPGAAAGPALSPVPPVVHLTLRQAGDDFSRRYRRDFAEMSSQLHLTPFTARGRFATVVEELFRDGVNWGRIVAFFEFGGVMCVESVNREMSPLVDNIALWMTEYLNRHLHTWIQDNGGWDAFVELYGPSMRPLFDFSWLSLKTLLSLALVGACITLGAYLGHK", "test": "Time Resolved-Fluorescence Resonance Energy Transfer (TR-FRET) Bcl-2 binding assay with F-Bak peptide probe", "settings": "GST-Bcl-2 1 nM, F-Bak probe 100 nM, Tb-anti-GST 1 nM; '<' = below limit of detection; read-out: TR-FRET Bcl-2 Binding Ki", "units": {"Ki": "nM"}}
{"smiles": "CC1(C)CCC(CN2CCN(c3ccc(C(=O)NS(=O)(=O)c4ccc(NCC5CCN(S(C)(=O)=O)C5)c([N+](=O)[O-])c4)c(Oc4cnc5[nH]ccc5c4)c3)CC2)=C(c2ccc(Cl)cc2)C1", "note": "(stereo not drawn) [Example 152, 4-(4-{[2-(4-chlorophenyl)-4,4-dimethylcyclohex-1-en-1-yl]methyl}piperazin-1-yl)-N-{[4-({[1-(methylsulfonyl)pyrrolidin-3-yl]methyl}amino)-3-nitrophenyl]sulfonyl}-2-(1H-pyrrolo[2,3-b]pyridin-5-yloxy)benzamide]", "Ki": "< 0.01"}
{"smiles": "CC(=O)N1CCC(CNc2ccc(S(=O)(=O)NC(=O)c3ccc(N4CCN(CC5=C(c6ccc(Cl)cc6)CC(C)(C)CC5)CC4)cc3Oc3cnc4[nH]ccc4c3)cc2[N+](=O)[O-])C1", "note": "(stereo not drawn) [Example 153, N-[(4-{[(1-acetylpyrrolidin-3-yl)methyl]amino}-3-nitrophenyl)sulfonyl]-4-(4-{[2-(4-chlorophenyl)-4,4-dimethylcyclohex-1-en-1-yl]methyl}piperazin-1-yl)-2-(1H-pyrrolo[2,3-b]pyridin-5-yloxy)benzamide]", "Ki": "< 0.01"}
{"smiles": "CC(=O)N1CC[C@@H](Nc2ccc(S(=O)(=O)NC(=O)c3ccc(N4CCN(CC5=C(c6ccc(Cl)cc6)CC(C)(C)CC5)CC4)cc3Oc3cnc4[nH]ccc4c3)cc2[N+](=O)[O-])C1", "note": "[Example 154, N-[(4-{[(3R)-1-acetylpyrrolidin-3-yl]amino}-3-nitrophenyl)sulfonyl]-4-(4-{[2-(4-chlorophenyl)-4,4-dimethylcyclohex-1-en-1-yl]methyl}piperazin-1-yl)-2-(1H-pyrrolo[2,3-b]pyridin-5-yloxy)benzamide]", "Ki": "< 0.01"}
{"smiles": "COCC(C)(C)CNc1ccc(S(=O)(=O)NC(=O)c2ccc(N3CCN(CC4=C(c5ccc(Cl)cc5)CC(C)(C)CC4)CC3)cc2Oc2cnc3[nH]ccc3c2)cc1[N+](=O)[O-]", "note": "[Example 155, 4-(4-{[2-(4-chlorophenyl)-4,4-dimethylcyclohex-1-en-1-yl]methyl}piperazin-1-yl)-N-({4-[(3-methoxy-2,2-dimethylpropyl)amino]-3-nitrophenyl}sulfonyl)-2-(1H-pyrrolo[2,3-b]pyridin-5-yloxy)benzamide]", "Ki": 0.059}
{"smiles": "CC1(C)CCC(CN2CCN(c3ccc(C(=O)NS(=O)(=O)c4ccc(NC[C@@H]5CC[C@@H](O)C5)c([N+](=O)[O-])c4)c(Oc4cnc5[nH]ccc5c4)c3)CC2)=C(c2ccc(Cl)cc2)C1", "note": "[Example 156, 4-(4-{[2-(4-chlorophenyl)-4,4-dimethylcyclohex-1-en-1-yl]methyl}piperazin-1-yl)-N-{[4-({[(1R,3R)-3-hydroxycyclopentyl]methyl}amino)-3-nitrophenyl]sulfonyl}-2-(1H-pyrrolo[2,3-b]pyridin-5-yloxy)benzamide]", "Ki": "< 0.01"}
{"smiles": "CC1(C)CCC(CN2CCN(c3ccc(C(=O)NS(=O)(=O)c4ccc(NC[C@H]5CC[C@H](O)C5)c([N+](=O)[O-])c4)c(Oc4cnc5[nH]ccc5c4)c3)CC2)=C(c2ccc(Cl)cc2)C1", "note": "[Example 157, 4-(4-{[2-(4-chlorophenyl)-4,4-dimethylcyclohex-1-en-1-yl]methyl}piperazin-1-yl)-N-{[4-({[(1S,3S)-3-hydroxycyclopentyl]methyl}amino)-3-nitrophenyl]sulfonyl}-2-(1H-pyrrolo[2,3-b]pyridin-5-yloxy)benzamide]", "Ki": "< 0.01"}
{"smiles": "CC1(C)CCC(CN2CCN(c3ccc(C(=O)NS(=O)(=O)c4ccc(NC[C@H]5CC[C@@H](O)C5)c([N+](=O)[O-])c4)c(Oc4cnc5[nH]ccc5c4)c3)CC2)=C(c2ccc(Cl)cc2)C1", "note": "[Example 158, 4-(4-{[2-(4-chlorophenyl)-4,4-dimethylcyclohex-1-en-1-yl]methyl}piperazin-1-yl)-N-{[4-({[(1S,3R)-3-hydroxycyclopentyl]methyl}amino)-3-nitrophenyl]sulfonyl}-2-(1H-pyrrolo[2,3-b]pyridin-5-yloxy)benzamide]", "Ki": "< 0.01"}
{"smiles": "CC1(C)CCC(CN2CCN(c3ccc(C(=O)NS(=O)(=O)c4ccc(NC[C@@H]5CC[C@H](O)C5)c([N+](=O)[O-])c4)c(Oc4cnc5[nH]ccc5c4)c3)CC2)=C(c2ccc(Cl)cc2)C1", "note": "[Example 159, 4-(4-{[2-(4-chlorophenyl)-4,4-dimethylcyclohex-1-en-1-yl]methyl}piperazin-1-yl)-N-{[4-({[(1R,3S)-3-hydroxycyclopentyl]methyl}amino)-3-nitrophenyl]sulfonyl}-2-(1H-pyrrolo[2,3-b]pyridin-5-yloxy)benzamide]", "Ki": "< 0.01"}
{"smiles": "CC1(C)CCC(CN2CCN(c3ccc(C(=O)NS(=O)(=O)c4ccc(N[C@H]5CCCNC5=O)c([N+](=O)[O-])c4)c(Oc4cnc5[nH]ccc5c4)c3)CC2)=C(c2ccc(Cl)cc2)C1", "note": "[Example 160, 4-(4-{[2-(4-chlorophenyl)-4,4-dimethylcyclohex-1-en-1-yl]methyl}piperazin-1-yl)-N-[(3-nitro-4-{[(3S)-2-oxopiperidin-3-yl]amino}phenyl)sulfonyl]-2-(1H-pyrrolo[2,3-b]pyridin-5-yloxy)benzamide]", "Ki": "< 0.01"}
{"smiles": "CC1(C)CCC(CN2CCN(c3ccc(C(=O)NS(=O)(=O)c4ccc(NCC5CN(C(CF)CF)C5)c([N+](=O)[O-])c4)c(Oc4cnc5[nH]ccc5c4)c3)CC2)=C(c2ccc(Cl)cc2)C1", "note": "[Example 161, 4-(4-{[2-(4-chlorophenyl)-4,4-dimethylcyclohex-1-en-1-yl]methyl}piperazin-1-yl)-N-({4-[({1-[2-fluoro-1-(fluoromethyl)ethyl]azetidin-3-yl}methyl)amino]-3-nitrophenyl}sulfonyl)-2-(1H-pyrrolo[2,3-b]pyridin-5-yloxy)benzamide]", "Ki": "< 0.01"}
{"smiles": "CC1(C)CCC(CN2CCN(c3ccc(C(=O)NS(=O)(=O)c4ccc(NCC5CN(C6COC6)C5)c([N+](=O)[O-])c4)c(Oc4cnc5[nH]ccc5c4)c3)CC2)=C(c2ccc(Cl)cc2)C1", "note": "[Example 162, 4-(4-{[2-(4-chlorophenyl)-4,4-dimethylcyclohex-1-en-1-yl]methyl}piperazin-1-yl)-N-[(3-nitro-4-{[(1-oxetan-3-ylazetidin-3-yl)methyl]amino}phenyl)sulfonyl]-2-(1H-pyrrolo[2,3-b]pyridin-5-yloxy)benzamide]", "Ki": "< 0.01"}
{"smiles": "CC1(C)CCC(CN2CCN(c3ccc(C(=O)NS(=O)(=O)c4ccc(NCC5CCN(C6COC6)CC5)c([N+](=O)[O-])c4)c(Oc4cnc5[nH]ccc5c4)c3)CC2)=C(c2ccc(Cl)cc2)C1", "note": "[Example 163, 4-(4-{[2-(4-chlorophenyl)-4,4-dimethylcyclohex-1-en-1-yl]methyl}piperazin-1-yl)-N-[(3-nitro-4-{[(1-oxetan-3-ylpiperidin-4-yl)methyl]amino}phenyl)sulfonyl]-2-(1H-pyrrolo[2,3-b]pyridin-5-yloxy)benzamide]", "Ki": "< 0.01"}
{"smiles": "CC1(C)CCC(CN2CCN(c3ccc(C(=O)NS(=O)(=O)c4ccc(NCC5CCN(C6CC6)CC5)c([N+](=O)[O-])c4)c(Oc4cnc5[nH]ccc5c4)c3)CC2)=C(c2ccc(Cl)cc2)C1", "note": "[Example 164, 4-(4-{[2-(4-chlorophenyl)-4,4-dimethylcyclohex-1-en-1-yl]methyl}piperazin-1-yl)-N-[(4-{[(1-cyclopropylpiperidin-4-yl)methyl]amino}-3-nitrophenyl)sulfonyl]-2-(1H-pyrrolo[2,3-b]pyridin-5-yloxy)benzamide]", "Ki": "< 0.01"}
{"smiles": "CC1(C)CCC(CN2CCN(c3ccc(C(=O)NS(=O)(=O)c4ccc(NCC5CN(CCF)CCO5)c([N+](=O)[O-])c4)c(Oc4cnc5[nH]ccc5c4)c3)CC2)=C(c2ccc(Cl)cc2)C1", "note": "(stereo not drawn) [Example 165, 4-(4-{[2-(4-chlorophenyl)-4,4-dimethylcyclohex-1-en-1-yl]methyl}piperazin-1-yl)-N-{[4-({[4-(2-fluoroethyl)morpholin-2-yl]methyl}amino)-3-nitrophenyl]sulfonyl}-2-(1H-pyrrolo[2,3-b]pyridin-5-yloxy)benzamide]", "Ki": "< 0.01"}
{"smiles": "CC1(C)CCC(CN2CCN(c3ccc(C(=O)NS(=O)(=O)c4ccc(NCC5CN(CC(F)F)CCO5)c([N+](=O)[O-])c4)c(Oc4cnc5[nH]ccc5c4)c3)CC2)=C(c2ccc(Cl)cc2)C1", "note": "(stereo not drawn) [Example 166, 4-(4-{[2-(4-chlorophenyl)-4,4-dimethylcyclohex-1-en-1-yl]methyl}piperazin-1-yl)-N-{[4-({[4-(2,2-difluoroethyl)morpholin-2-yl]methyl}amino)-3-nitrophenyl]sulfonyl}-2-(1H-pyrrolo[2,3-b]pyridin-5-yloxy)benzamide]", "Ki": "< 0.01"}
{"smiles": "CC1(C)CCC(CN2CCN(c3ccc(C(=O)NS(=O)(=O)c4ccc(OCC5(F)CCN(C6COC6)CC5)c([N+](=O)[O-])c4)c(Oc4cnc5[nH]ccc5c4)c3)CC2)=C(c2ccc(Cl)cc2)C1", "note": "[Example 167, 4-(4-{[2-(4-chlorophenyl)-4,4-dimethylcyclohex-1-en-1-yl]methyl}piperazin-1-yl)-N-({4-[(4-fluoro-1-oxetan-3-ylpiperidin-4-yl)methoxy]-3-nitrophenyl}sulfonyl)-2-(1H-pyrrolo[2,3-b]pyridin-5-yloxy)benzamide]", "Ki": "< 0.01"}
{"smiles": "CC1(C)CCC(CN2CCN(c3ccc(C(=O)NS(=O)(=O)c4ccc(OC[C@@H]5CC(F)(F)CN5C5COC5)c([N+](=O)[O-])c4)c(Oc4cnc5[nH]ccc5c4)c3)CC2)=C(c2ccc(Cl)cc2)C1", "note": "[Example 168, 4-(4-{[2-(4-chlorophenyl)-4,4-dimethylcyclohex-1-en-1-yl]methyl}piperazin-1-yl)-N-[(4-{[(2S)-4,4-difluoro-1-oxetan-3-ylpyrrolidin-2-yl]methoxy}-3-nitrophenyl)sulfonyl]-2-(1H-pyrrolo[2,3-b]pyridin-5-yloxy)benzamide]", "Ki": "< 0.01"}
{"smiles": "CC1(C)CCC(CN2CCN(c3ccc(C(=O)NS(=O)(=O)c4ccc(NCC5COCCN5C5CCOCC5)c([N+](=O)[O-])c4)c(Oc4cnc5[nH]ccc5c4)c3)CC2)=C(c2ccc(Cl)cc2)C1", "note": "(stereo not drawn) [Example 169, 4-(4-{[2-(4-chlorophenyl)-4,4-dimethylcyclohex-1-en-1-yl]methyl}piperazin-1-yl)-N-[(3-nitro-4-{[(4-tetrahydro-2H-pyran-4-ylmorpholin-3-yl)methyl]amino}phenyl)sulfonyl]-2-(1H-pyrrolo[2,3-b]pyridin-5-yloxy)benzamide]", "Ki": 0.021}
